Values quoted from earlier work, collected in patent US6841573B2, “Use of arachidonic acid as a method of increasing skeletal muscle mass” (Molecular Nutrition, priority 2002, dated 2005).

Columns and labels:
cox-1 enzyme = target: T1, cox-1 enzyme (Homo sapiens, UniProt P23219); settings: by inhibiting the normal post-exercise increase in PGF2alpha
T1 construct: host or cells: skeletal muscle in vivo (endogenous enzyme)

[1] = serum from forearm and kidney of human volunteers after direct infusion into brachial or renal artery
[2] = after oral 200 mg and 1.5 g supplemented arachidonic acid per day, human, drawn blood
[3] = 14C-labeled arachidonic acid, human skeletal muscle and kidney homogenates
intact rabbit muscle = settings: unstimulated intact rabbit muscle, in-vitro
[4] = after administering the precursor

T1 sequence (P23219 24-599): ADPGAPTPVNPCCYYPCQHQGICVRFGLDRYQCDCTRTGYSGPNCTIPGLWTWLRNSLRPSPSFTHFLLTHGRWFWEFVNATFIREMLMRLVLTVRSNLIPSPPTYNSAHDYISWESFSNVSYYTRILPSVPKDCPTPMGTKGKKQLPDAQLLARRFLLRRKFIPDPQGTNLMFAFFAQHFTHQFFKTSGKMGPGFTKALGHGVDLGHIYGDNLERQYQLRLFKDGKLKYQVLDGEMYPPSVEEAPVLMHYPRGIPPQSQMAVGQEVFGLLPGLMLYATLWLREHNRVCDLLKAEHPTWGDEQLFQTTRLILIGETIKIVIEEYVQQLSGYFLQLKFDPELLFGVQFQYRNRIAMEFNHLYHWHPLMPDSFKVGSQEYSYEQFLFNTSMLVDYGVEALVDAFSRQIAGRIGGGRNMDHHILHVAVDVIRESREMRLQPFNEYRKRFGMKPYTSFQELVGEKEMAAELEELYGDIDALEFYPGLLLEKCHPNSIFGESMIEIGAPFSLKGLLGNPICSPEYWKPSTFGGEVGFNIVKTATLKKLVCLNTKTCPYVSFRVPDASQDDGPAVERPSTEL

Row | SMILES | effect on rates of protein synthesis (intact rabbit muscle) | further results
1 | CC(=O)Nc1ccc(O)cc1 [acetaminophen] |  | effect on anabolic response of muscle to resistance exercise (cox-1 enzyme): profoundly diminish the anabolic response
2 | CCCCC/C=C\C/C=C\C/C=C\C/C=C\CCCC(=O)O [arachidonic acid] |  | labeled metabolites found in serum [1]: PGD2, PGE2, PGF2 alpha, 6-keto-PGF1 alpha and 13,14-dihydro-15-keto-PGE2 (Me) were all found; in-vitro secretion of LTB4 and PGE2 [2]: measurably increase; prostaglandins produced during incubation [3]: PGD2, PGE2, PGF2 alpha and 6-keto-PGF1 alpha
3 | CCCCC[C@H](O)/C=C/[C@H]1[C@H](O)CC(=O)[C@@H]1C/C=C\CCCC(=O)O [prostaglandin E2, PGE2] | failed to do so | 
4 | C[C@]12CCC(=O)C=C1CC[C@@H]1[C@@H]2CC[C@]2(C)C(=O)CC[C@@H]12 [androstenedione] |  | period of subsequent decline of active hormone (testosterone) concentration [4]: three to four; time to peak concentration of active hormone (testosterone) [4]: ≤ 90 min
5 | CCCCC[C@H](O)/C=C/[C@H]1C=CC(=O)[C@@H]1CCCCCCC(=O)O [prostaglandin A1] | increased rates of protein synthesis | 
6 | CCCCC[C@H](O)/C=C/[C@@H]1[C@@H](C/C=C\CCCC(=O)O)[C@@H](O)C[C@H]1O [prostaglandin F2 alpha, PGF2alpha] | increased rates of protein synthesis | 
7 | CCCCC[C@H](O)/C=C/[C@H]1C(=O)C[C@H](O)[C@@H]1C/C=C\CCCC(=O)O [prostaglandin D2, PGD2] | failed to do so | 
8 | CCCCC/C=C\C\C=C/C=C/C=C/[C@@H](SC[C@H](N)C(=O)NCC(=O)O)[C@@H](O)CCCC(=O)O [leukotriene D4] | failed to do so | 
9 | CCCCC/C=C\C\C=C/C=C/C=C/[C@@H](SC[C@H](NC(=O)CC[C@H](N)C(=O)O)C(=O)NCC(=O)O)[C@@H](O)CCCC(=O)O [leukotriene C4] | failed to do so | 
